From ChEMBL document CHEMBL5052844, “Heteroaryl amides useful as kif18a inhibitors” (2020)

Target: T1, Kinesin-like protein KIF18A (Homo sapiens, UniProt Q8NI77)
T1 sequence (Q8NI77 whole entry): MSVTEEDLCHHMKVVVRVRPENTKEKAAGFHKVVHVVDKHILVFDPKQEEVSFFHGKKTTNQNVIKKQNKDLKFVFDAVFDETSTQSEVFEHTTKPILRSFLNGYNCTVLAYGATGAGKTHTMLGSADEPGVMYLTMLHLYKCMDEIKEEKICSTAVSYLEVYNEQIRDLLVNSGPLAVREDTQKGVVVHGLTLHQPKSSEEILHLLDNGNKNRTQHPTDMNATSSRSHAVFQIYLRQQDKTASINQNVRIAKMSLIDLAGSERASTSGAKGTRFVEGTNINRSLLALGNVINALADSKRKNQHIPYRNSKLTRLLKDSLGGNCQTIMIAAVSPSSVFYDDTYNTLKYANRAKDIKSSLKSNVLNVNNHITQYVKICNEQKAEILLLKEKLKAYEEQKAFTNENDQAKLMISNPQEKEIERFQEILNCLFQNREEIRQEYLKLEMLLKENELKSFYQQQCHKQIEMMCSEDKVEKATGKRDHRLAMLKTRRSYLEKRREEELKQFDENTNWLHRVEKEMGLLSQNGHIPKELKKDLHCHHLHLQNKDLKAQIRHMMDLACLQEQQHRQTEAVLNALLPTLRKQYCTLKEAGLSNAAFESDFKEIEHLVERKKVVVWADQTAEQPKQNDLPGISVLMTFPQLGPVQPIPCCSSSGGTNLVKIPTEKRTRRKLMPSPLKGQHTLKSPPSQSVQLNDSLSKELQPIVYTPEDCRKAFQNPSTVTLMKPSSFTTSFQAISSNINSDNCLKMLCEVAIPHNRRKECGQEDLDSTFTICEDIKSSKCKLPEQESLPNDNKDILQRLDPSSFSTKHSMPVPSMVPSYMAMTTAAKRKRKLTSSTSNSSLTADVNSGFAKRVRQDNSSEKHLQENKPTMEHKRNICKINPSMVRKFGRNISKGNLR
Experiment: Inhibition of recombinant His-tagged human KIF18A (1 to 467 residues) expressed in baculovirus expression system assessed as inhibition of microtubule-stimulated ATPase activity preincubated for 15 mins followed by ATP addition and further incubated for 15 mins and measured after 40 mins by ADP-Glo reagent based assay

Cc1cc(NC(=O)c2cnc(S(=O)(=O)C3CC3)cc2N2CCC3(CC2)CC3)nc(N2CCC(F)(F)CC2)n1
IC50: 48 nM
